According to patent US10017762B2, “Compositions and methods for treating or preventing lupus” (The United States of America, as represented by the …, priority 2010, dated 2018):

What was measured:
FcϵRI = details: Lin, H. et al. (2004); cited from earlier work
blood basophils = assay: Blood basophil numbers and HLA-DR expression in SLE patients under immunosuppressive treatments; assay type: in vivo, human; details: low dose (≤7.5 mg/day) vs medium to high dose (>7.5 mg/day) prednisone
Method: Blood was harvested in EDTA-coated tubes. 4 ml of blood was used to harvest plasma sample. For this purpose, blood was centrifugated at 600×g for 20 minutes at 4° C. Plasma phase was then harvested, and samples kept at […] until further analysis. For basophils analysis, 10 ml of whole blood were added to 20 ml of ACK lysing buffer and incubated 5 min at room temperature and 5 more minutes on ice. 30 ml of PBS was added, and cells were centrifuged (500×g, 5 min). This step was repeated three times total until no more red blood cells were visible. Cells were then resuspended into 10 ml (original volume) of FACS buffer (PBS/1% BSA/0.05% NaN3). Number of leukocytes per ml and viability were assessed with a ViCell cell counter (Beckman and Coulter). Viability was always over 90%. Cells were then processed for extracellular staining with the indicated surface markers. For basophil absolute counts, basophils were identified as FcϵRIα^+CD203c^+CD123^+CD11b^+ cells. For HLA-DR expression analysis, basophils were identified as FcϵRI^+CD203c^+CD11b^+. For CD62L expression analysis, basophils were identified as FcϵRIα^+CD203c^+CD123^+.

Molecule | FcϵRI expression on basophils (FcϵRI) | HLA-DR expressing basophils (blood basophils) | number of peripheral basophils (blood basophils)
omalizumab: recombinant DNA-derived humanized IgG monoclonal antibody that selectively binds to human immunoglobulin E (IgE) | decreases FcϵRI expression on basophils | – | –
C[C@]12C=CC(=O)C=C1CC[C@@H]1[C@@H]2C(=O)C[C@@]2(C)[C@H]1CC[C@]2(O)C(=O)CO [prednisone] | – | no difference | no difference
